Assays:
Test in all cases: Competitive isoTOP-ABPP, cell lysates;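 on isoTOP-ABPP reactivity profile ratio, P09211 C48: Heavy/light ratio DMSO over fragment-treated so higher means more cysteine engagement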;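 on isoTOP-ABPP reactivity profile ratio, P63244 C182: Heavy/light ratio DMSO over fragment-treated so higher means more cysteine engagement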
Type in all cases: binding
GSTP1 C48 (P09211) = GSTP1 C48 (P09211) (Homo sapiens, UniProt P09211); settings: for isoTOP-ABPP reactivity ratio, P09211_C48 / isoTOP-ABPP reactivity profile ratio, P09211_C48: 500 μm; for R value (DMSO/fragment): 250 μM, in vitro;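 on isoTOP-ABPP reactivity profile ratio, P09211 C48: Heavy/light ratio DMSO over fragment-treated so higher means more cysteine engagement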
Chain of GSTP1 C48 (P09211) (P09211 whole entry, the tested form may be a part): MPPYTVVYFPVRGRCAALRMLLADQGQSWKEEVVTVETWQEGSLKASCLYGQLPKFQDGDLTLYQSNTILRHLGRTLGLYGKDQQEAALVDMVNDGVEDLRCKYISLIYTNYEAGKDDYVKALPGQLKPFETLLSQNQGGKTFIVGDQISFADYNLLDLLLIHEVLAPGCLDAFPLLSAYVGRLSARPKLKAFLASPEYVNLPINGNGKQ

MGMT C150 (P16455) = target: T1, MGMT C150 (P16455) (Homo sapiens, UniProt P16455)
T1 sequence (P16455 1-207): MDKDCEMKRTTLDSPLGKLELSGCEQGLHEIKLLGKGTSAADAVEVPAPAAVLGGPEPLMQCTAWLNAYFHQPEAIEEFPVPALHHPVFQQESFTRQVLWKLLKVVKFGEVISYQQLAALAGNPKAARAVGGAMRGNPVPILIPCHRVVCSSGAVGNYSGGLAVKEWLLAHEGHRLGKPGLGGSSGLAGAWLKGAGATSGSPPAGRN

PDIA6 C190 (Q15084) = target: T2, PDIA6 C190 (Q15084) (Homo sapiens, UniProt Q15084); settings: for R value (DMSO/fragment): 250 μM, in vitro
T2 sequence (Q15084 20-440): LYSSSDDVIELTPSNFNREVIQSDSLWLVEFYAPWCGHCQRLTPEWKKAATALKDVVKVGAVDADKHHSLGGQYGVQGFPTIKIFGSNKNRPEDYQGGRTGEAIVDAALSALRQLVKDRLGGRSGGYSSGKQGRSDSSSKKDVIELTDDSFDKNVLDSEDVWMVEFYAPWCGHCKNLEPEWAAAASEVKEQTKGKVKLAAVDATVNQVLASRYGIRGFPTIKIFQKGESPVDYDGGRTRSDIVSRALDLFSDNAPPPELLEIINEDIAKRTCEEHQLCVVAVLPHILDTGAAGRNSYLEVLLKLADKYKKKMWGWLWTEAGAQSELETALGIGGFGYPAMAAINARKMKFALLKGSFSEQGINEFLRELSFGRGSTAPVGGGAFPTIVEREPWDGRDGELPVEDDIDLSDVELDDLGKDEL

PRMT1 C109 (Q99873) = PRMT1 C109 (Q99873) (Homo sapiens, UniProt Q99873); settings: for isoTOP-ABPP reactivity ratio, Q99873_C109 / isoTOP-ABPP reactivity profile ratio, Q99873_C109: 500 μm; for R value (DMSO/fragment): 250 μM, in vitro
Chain of PRMT1 C109 (Q99873) (Q99873 whole entry, the tested form may be a part): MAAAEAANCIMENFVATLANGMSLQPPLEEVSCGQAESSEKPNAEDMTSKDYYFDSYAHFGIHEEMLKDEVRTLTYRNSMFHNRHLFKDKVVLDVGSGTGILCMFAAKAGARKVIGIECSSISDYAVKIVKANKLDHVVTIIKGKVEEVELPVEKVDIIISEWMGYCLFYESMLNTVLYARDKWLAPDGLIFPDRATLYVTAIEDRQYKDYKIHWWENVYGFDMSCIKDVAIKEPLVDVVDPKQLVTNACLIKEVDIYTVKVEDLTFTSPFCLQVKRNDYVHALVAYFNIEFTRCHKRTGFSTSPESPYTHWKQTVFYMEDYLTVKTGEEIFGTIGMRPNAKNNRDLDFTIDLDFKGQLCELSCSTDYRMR

XPO1 C34 (O14980) = XPO1 C34 (O14980) (Homo sapiens, UniProt O14980); settings: for isoTOP-ABPP reactivity ratio, O14980_C34 / isoTOP-ABPP reactivity profile ratio, O14980_C34: 500 μm; for R value (DMSO/fragment): 250 μM, in vitro
Chain of XPO1 C34 (O14980) (O14980 whole entry, the tested form may be a part): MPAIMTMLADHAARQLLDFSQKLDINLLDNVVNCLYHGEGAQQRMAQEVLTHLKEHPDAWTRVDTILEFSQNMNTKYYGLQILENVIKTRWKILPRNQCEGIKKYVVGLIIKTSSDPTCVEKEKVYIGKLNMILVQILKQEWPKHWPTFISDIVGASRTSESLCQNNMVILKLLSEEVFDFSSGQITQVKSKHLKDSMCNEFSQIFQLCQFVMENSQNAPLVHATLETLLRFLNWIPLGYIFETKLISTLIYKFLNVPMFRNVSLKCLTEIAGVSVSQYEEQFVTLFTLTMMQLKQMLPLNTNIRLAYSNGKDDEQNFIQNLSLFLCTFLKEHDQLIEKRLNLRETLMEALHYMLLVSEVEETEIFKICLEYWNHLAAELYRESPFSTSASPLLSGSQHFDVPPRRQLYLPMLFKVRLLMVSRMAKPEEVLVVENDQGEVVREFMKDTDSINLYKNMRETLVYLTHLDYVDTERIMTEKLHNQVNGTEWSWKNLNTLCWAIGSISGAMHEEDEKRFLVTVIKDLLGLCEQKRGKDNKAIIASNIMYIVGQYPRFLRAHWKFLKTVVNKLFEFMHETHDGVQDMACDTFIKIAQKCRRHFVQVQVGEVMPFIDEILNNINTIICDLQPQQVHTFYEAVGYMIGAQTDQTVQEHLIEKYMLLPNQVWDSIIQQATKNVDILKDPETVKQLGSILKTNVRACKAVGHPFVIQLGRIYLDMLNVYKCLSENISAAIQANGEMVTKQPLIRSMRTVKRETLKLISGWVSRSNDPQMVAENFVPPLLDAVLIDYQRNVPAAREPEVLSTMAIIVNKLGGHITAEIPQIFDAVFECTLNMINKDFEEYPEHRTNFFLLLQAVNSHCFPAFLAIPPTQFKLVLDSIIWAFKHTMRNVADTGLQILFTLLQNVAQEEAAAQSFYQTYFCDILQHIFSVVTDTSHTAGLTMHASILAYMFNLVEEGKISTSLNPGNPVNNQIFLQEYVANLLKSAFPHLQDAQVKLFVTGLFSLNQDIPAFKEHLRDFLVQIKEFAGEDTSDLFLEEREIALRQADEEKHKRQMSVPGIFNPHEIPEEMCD

GNB2L1 C182 (P63244) = GNB2L1 C182 (P63244) (Homo sapiens, UniProt P63244); settings: for isoTOP-ABPP reactivity profile ratio, P63244_C182: 500 μm;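 on isoTOP-ABPP reactivity profile ratio, P63244 C182: Heavy/light ratio DMSO over fragment-treated so higher means more cysteine engagement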
ZNF217 C286 (O75362) = ZNF217 C286 (O75362) (Homo sapiens, UniProt O75362); settings: for isoTOP-ABPP reactivity profile ratio, O75362_C286: 500 μm
Chain of ZNF217 C286 (O75362) (O75362 whole entry): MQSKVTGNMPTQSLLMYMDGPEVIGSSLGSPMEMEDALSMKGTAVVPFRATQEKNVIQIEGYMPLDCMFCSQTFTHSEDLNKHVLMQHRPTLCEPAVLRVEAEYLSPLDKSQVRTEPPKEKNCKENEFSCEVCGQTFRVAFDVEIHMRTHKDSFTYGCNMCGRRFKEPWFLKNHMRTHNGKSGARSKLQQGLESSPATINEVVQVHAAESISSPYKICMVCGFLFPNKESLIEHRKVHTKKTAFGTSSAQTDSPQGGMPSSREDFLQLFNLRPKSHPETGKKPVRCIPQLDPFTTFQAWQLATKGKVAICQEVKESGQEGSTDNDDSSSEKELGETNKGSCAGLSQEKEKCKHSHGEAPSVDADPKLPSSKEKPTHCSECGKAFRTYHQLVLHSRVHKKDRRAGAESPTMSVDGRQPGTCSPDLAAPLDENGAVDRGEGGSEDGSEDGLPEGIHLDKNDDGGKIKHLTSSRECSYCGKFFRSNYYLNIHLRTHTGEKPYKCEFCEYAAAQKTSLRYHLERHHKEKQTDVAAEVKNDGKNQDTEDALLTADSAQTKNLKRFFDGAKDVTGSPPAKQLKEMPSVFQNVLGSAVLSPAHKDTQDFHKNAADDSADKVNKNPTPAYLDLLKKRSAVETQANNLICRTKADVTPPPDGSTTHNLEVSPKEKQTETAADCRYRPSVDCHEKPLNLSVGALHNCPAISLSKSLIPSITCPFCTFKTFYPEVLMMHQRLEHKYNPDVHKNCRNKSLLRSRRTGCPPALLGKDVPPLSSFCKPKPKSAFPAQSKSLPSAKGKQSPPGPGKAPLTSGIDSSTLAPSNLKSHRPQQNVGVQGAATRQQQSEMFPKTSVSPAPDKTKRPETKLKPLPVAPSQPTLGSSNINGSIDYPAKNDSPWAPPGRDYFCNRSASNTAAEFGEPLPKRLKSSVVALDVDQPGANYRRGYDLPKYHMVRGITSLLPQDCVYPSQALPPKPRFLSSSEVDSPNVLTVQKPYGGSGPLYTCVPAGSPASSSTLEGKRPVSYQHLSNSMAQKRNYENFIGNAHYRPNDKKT

DCUN1D1 C115 (Q96GG9) = DCUN1D1 C115 (Q96GG9) (Homo sapiens, UniProt Q96GG9); settings: 500 μm, in-vitro_ramos
Chain of DCUN1D1 C115 (Q96GG9) (Q96GG9 whole entry): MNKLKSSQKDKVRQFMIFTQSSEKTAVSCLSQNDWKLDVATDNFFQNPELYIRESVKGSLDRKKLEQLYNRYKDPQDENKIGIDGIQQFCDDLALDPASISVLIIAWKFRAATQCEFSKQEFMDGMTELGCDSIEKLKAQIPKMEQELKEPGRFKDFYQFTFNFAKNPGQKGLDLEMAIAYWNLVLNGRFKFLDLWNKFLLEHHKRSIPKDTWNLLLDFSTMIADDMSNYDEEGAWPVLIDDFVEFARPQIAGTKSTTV

## O=C(CCl)N(Cc1ccc(F)cc1)C12CC3CC(CC(C3)C1)C2 [compound 34]
GSTP1 C48 (P09211); in-vitro_ramos
  isoTOP-ABPP reactivity ratio, P09211_C48: 1.0
GSTP1 C48 (P09211); in-vitro_ramos_231
  isoTOP-ABPP reactivity ratio, P09211_C48: 0.8
MGMT C150 (P16455); 500 μm, in-vitro_ramos
  isoTOP-ABPP reactivity ratio, P16455_C150: 1.4
PDIA6 C190 (Q15084); 500 μm, in-vitro_ramos_231
  isoTOP-ABPP reactivity ratio, Q15084_C190: 0.9
PRMT1 C109 (Q99873); in-vitro_ramos
  isoTOP-ABPP reactivity ratio, Q99873_C109: 1.1
PRMT1 C109 (Q99873); in-vitro_ramos_231
  isoTOP-ABPP reactivity ratio, Q99873_C109: 0.8
XPO1 C34 (O14980); in-vitro_ramos
  isoTOP-ABPP reactivity ratio, O14980_C34: 1.1
XPO1 C34 (O14980); in-vitro_ramos_231
  isoTOP-ABPP reactivity ratio, O14980_C34: 0.8

## COc1cc(NC(=O)CCl)cc(OC)c1 [compound 43]
GNB2L1 C182 (P63244); in-vitro_ramos
  isoTOP-ABPP reactivity profile ratio, P63244_C182: 0.9
GNB2L1 C182 (P63244); in-vitro_ramos_231
  isoTOP-ABPP reactivity profile ratio, P63244_C182: 0.9
GSTP1 C48 (P09211); in-vitro_ramos
  isoTOP-ABPP reactivity profile ratio, P09211_C48: 2.2
GSTP1 C48 (P09211); in-vitro_ramos_231
  isoTOP-ABPP reactivity profile ratio, P09211_C48: 4.1
MGMT C150 (P16455); 500 μm, in-vitro_ramos
  isoTOP-ABPP reactivity profile ratio, P16455_C150: 20.0
PDIA6 C190 (Q15084); 500 μm, in-vitro_ramos_231
  isoTOP-ABPP reactivity profile ratio, Q15084_C190: 20.0
PRMT1 C109 (Q99873); in-vitro_ramos
  isoTOP-ABPP reactivity profile ratio, Q99873_C109: 1.2
PRMT1 C109 (Q99873); in-vitro_ramos_231
  isoTOP-ABPP reactivity profile ratio, Q99873_C109: 1.4
XPO1 C34 (O14980); in-vitro_ramos_231
  isoTOP-ABPP reactivity profile ratio, O14980_C34: 1.1
ZNF217 C286 (O75362); in-vitro_ramos
  isoTOP-ABPP reactivity profile ratio, O75362_C286: 1.2
ZNF217 C286 (O75362); in-vitro_ramos_231
  isoTOP-ABPP reactivity profile ratio, O75362_C286: 1.9

## COc1ccc(C2CC(c3cccs3)=NN2C(=O)CCl)cc1 (stereo not shown) [compound 4]
GNB2L1 C182 (P63244); 250 μM, in vitro, MDA-MB-231
  R value (DMSO/fragment): 0.9
GSTP1 C48 (P09211); MDA-MB-231
  R value (DMSO/fragment): 3.2
GSTP1 C48 (P09211); Ramos
  R value (DMSO/fragment): 0.5
MGMT C150 (P16455); 250 μM, in vitro, Ramos
  R value (DMSO/fragment): 6.9
PDIA6 C190 (Q15084); MDA-MB-231
  R value (DMSO/fragment): 1.8
PDIA6 C190 (Q15084); Ramos
  R value (DMSO/fragment): 1.2
PRMT1 C109 (Q99873); MDA-MB-231
  R value (DMSO/fragment): 1.1
PRMT1 C109 (Q99873); Ramos
  R value (DMSO/fragment): 0.2
XPO1 C34 (O14980); MDA-MB-231
  R value (DMSO/fragment): 1.0
XPO1 C34 (O14980); Ramos
  R value (DMSO/fragment): 0.2
ZNF217 C286 (O75362); 250 μM, in vitro, MDA-MB-231
  R value (DMSO/fragment): 1.7

## O=C(CCl)Nc1cccc2ncccc12 [compound 51]
DCUN1D1 C115 (Q96GG9)
  isoTOP-ABPP reactivity profile ratio, Q96GG9_C115: 0.8
GNB2L1 C182 (P63244); in-vitro_ramos
  isoTOP-ABPP reactivity profile ratio, P63244_C182: 0.9
GNB2L1 C182 (P63244); in-vitro_ramos_231
  isoTOP-ABPP reactivity profile ratio, P63244_C182: 0.7
GSTP1 C48 (P09211); in-vitro_ramos
  isoTOP-ABPP reactivity profile ratio, P09211_C48: 1.0
GSTP1 C48 (P09211); in-vitro_ramos_231
  isoTOP-ABPP reactivity profile ratio, P09211_C48: 1.1
PDIA6 C190 (Q15084); 500 μm, in-vitro_ramos
  isoTOP-ABPP reactivity profile ratio, Q15084_C190: 5.6
PRMT1 C109 (Q99873); in-vitro_ramos
  isoTOP-ABPP reactivity profile ratio, Q99873_C109: 9.5
PRMT1 C109 (Q99873); in-vitro_ramos_231
  isoTOP-ABPP reactivity profile ratio, Q99873_C109: 0.9
PRMT1 C109 (Q99873); competitive isoTOP-ABPP
  blockade of IA-alkyne labeling of C109 of PRMT1: blocking IA-alkyne labeling
XPO1 C34 (O14980); in-vitro_ramos
  isoTOP-ABPP reactivity profile ratio, O14980_C34: 1.0
XPO1 C34 (O14980); in-vitro_ramos_231
  isoTOP-ABPP reactivity profile ratio, O14980_C34: 0.9
ZNF217 C286 (O75362); in-vitro_ramos
  isoTOP-ABPP reactivity profile ratio, O75362_C286: 20.0
ZNF217 C286 (O75362); in-vitro_ramos_231
  isoTOP-ABPP reactivity profile ratio, O75362_C286: 0.9

Reference: patent US10670605B2, “Cysteine reactive probes and uses thereof” (The Scripps Research Institute, priority 2015, dated 2020)
